In US10781200B2, “Therapeutic inhibitory compounds” (Attune Pharmaceuticals, Inc., priority 2016, dated 2020):

Experiment: Pharmacokinetic study, oral exposure in rats
Format: in vivo
Conditions: male Sprague-Dawley rats, single oral dose 10 mg/kg, plasma
Protocol: Pharmacokinetic studies of select compounds were performed to assess the pharmacokinetic properties. Male Sprague-Dawley rats were administered a single oral dose of the test compound at 10 mg/kg (dose concentration: 2 mg/mL, dose volume: 5 ml/kg) via oral gavage. Blood samples were collected via jugular vein at pre-dose, post-dose 5 min, 15 min, 30 min, 1 h, 2 h, 4 h, 6 h, 8 h, 10 h and 24 h, and centrifuged (8000 rpm for 6 minutes at 2-8° C.). The resulting plasma fractions were analyzed by LC/MS/MS to determine the concentration of the test compound.

Q: With `Cc1cc(N)nc(C)c1CNC(=O)c1c[nH]c(Cc2ccc3ncc(Cl)cc3c2)n1` [Example 5, N-((6-amino-2,4-dimethylpyridin-3-yl)methyl)-2-((3-chloroquinolin-6-yl)methyl)-1H-imidazole-5-carboxamide] as the molecule, how does the AUC read?
A: Its AUC is “BLQ”.

Q: Which AUC does the source give for `Cc1cc(N)nc(C)c1CNC(=O)c1cn(Cc2ccc3ncc(Cl)cc3c2)c2ccncc12` [Example 35, N-((6-amino-2,4-dimethylpyridin-3-yl)methyl)-1-((3-chloroquinolin-6-yl)methyl)-1H-pyrrolo[3,2-c]pyridine-3-carboxamide] here?
A: Its AUC is “BLQ”.

Q: With `Cc1cc(N)nc(C)c1CNC(=O)c1cn(Cc2ccc3ncc(Cl)cc3c2)c2cnc(C#N)cc12` [Example 134, N-((6-amino-2,4-dimethylpyridin-3-yl)methyl)-1-((3-chloroquinolin-6-yl)methyl)-5-cyano-1H-pyrrolo[2,3-c]pyridine-3-carboxamide] as the molecule, how does the AUC read?
A: Its AUC is “BLQ”.
